# Data published in PMC7091509 (Biophysical Journal, 2020).
# “Also recorded” adds a separate entry of the source.
# Columns and labels:
# [1] = target: first vinculin head domain Vd1 (aa 1-258), SII-Vd1-ybbR (UniProt P18206); assay: AFM single-molecule force spectroscopy
# [2] = test system: first vinculin head domain (Vd1); assay: AFM single-molecule force spectroscopy; assay type: binding; settings: for relative mechanical stability of Vd1-VBS complex / ratio of unfolding to direct unbinding (UF/UB): shear-like pulling; for relative mechanical stability of Vd1-VBS complex: AFM experiments and simulations; for ratio of unfolding to direct unbinding (UF/UB): derived from AFM experiments
# [3] = test system: vinculin; settings: cited from earlier work
# [4] = C-terminal pulling, bimodal distribution, 800 nm/s
# first vinculin head domain Vd1 (aa 1-258), SII-Vd1-ybbR, sequence (P18206 1-258): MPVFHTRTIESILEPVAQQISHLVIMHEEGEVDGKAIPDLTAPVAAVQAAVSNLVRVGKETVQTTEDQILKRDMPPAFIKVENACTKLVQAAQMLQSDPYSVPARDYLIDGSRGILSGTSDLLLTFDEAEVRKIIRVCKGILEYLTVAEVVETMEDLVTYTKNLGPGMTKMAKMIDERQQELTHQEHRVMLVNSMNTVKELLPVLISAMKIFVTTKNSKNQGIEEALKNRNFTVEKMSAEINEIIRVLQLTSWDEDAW
substance,measurement,setting,value
talin VBS58 peptide with C-terminal cysteine (GSGS-VBS-GSGS-C) (from UniProt Q9Y490 2345-2369),UF/UB (ratio of unfolding to direct unbinding),[1],0.4
same,mean rupture force,[1],45 to 60 pN
talin VBS11 peptide with N-terminal cysteine (C-GSGS-VBS-GSGS) (from UniProt Q9Y490 820-843),UF/UB (ratio of unfolding to direct unbinding),[1],0
talin VBS11 peptide with C-terminal cysteine (GSGS-VBS-GSGS-C) (from UniProt Q9Y490 820-843),UF/UB (ratio of unfolding to direct unbinding),[1],2
same,"rupture force, high-force population",[1],> 60 pN
same,"rupture force, low-force population",[1],< 60 pN
ILEAAKSIAAATSALVKAASAAQRE [Talin VBS58],relative mechanical stability of Vd1-VBS complex,[2],least stable complex; also recorded: low mechanical stability
same,ratio of unfolding to direct unbinding (UF/UB),[2],≈ 0.4
same,interaction in SPOT-peptide assay,[3],strong interaction
GEMVGQARILAQATSDLVNAIKDA [Talin VBS11],direct unbinding in experiment,"[2]; C-terminal (shear-like) pulling, 800 nm/s",almost no direct unbinding
same,rupture force of high-force population,[2]; [4],> 60 pN
same,rupture force of low-force population,[2]; [4],< 60 pN
same,high-force population,"[2]; N-terminal pulling, 800 nm/s",disappeared
same,unfolding pattern in AFM traces,"[2]; shear-like pulling (C-terminal; N-terminal for α-actinin), 800 nm/s",shows a population of high-force traces with multiple unfolding peaks
same,relative mechanical stability of Vd1-VBS complex,[2],formed the most stable complex
same,ratio of unfolding to direct unbinding (UF/UB),[2],≈ 2
talin VBS58 peptide with N-terminal cysteine (C-GSGS-VBS-GSGS) (from UniProt Q9Y490 2345-2369),UF/UB (ratio of unfolding to direct unbinding),[1],0
